# In ChEMBL document CHEMBL1909046, “DrugMatrix in vitro pharmacology data”:
# Target: D(3) dopamine receptor (Homo sapiens, UniProt P35462)
# Experiment: DRUGMATRIX: Dopamine D3 radioligand binding (ligand: [3H] Spiperone)
# Format: cell membranes, CHO, Membrane
# Conditions: cho
# D(3) dopamine receptor, sequence (P35462 whole entry): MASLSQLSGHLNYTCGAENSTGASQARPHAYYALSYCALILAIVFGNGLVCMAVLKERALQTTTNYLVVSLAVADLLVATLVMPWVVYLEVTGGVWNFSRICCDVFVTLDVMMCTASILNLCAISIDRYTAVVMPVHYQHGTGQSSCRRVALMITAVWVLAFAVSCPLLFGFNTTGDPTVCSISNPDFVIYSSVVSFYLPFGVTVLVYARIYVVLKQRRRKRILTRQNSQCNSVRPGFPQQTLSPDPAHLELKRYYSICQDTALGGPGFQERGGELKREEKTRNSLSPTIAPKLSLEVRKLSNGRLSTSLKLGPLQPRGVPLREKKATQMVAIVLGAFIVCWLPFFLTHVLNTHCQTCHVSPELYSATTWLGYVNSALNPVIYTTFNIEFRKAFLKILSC
Compound,IC50,Ki
Nc1ccc(S(=O)(=O)NC(=O)c2ccccc2)cc1 [SULFABENZAMIDE],Not Active,
O=c1[nH]c(=O)n(C2CCCO2)cc1F (configuration not stated) [TEGAFUR],Not Active,
CC(=N)S [THIOACETAMIDE],Not Active,
Cc1ccc(C(=O)c2ccc(CC(=O)O)n2C)cc1 [TOLMETIN],Not Active,
CC(=O)OCC(COC(C)=O)OC(C)=O [TRIACETIN],Not Active,
CN1CCN(CCCN2c3ccccc3Sc3ccc(C(F)(F)F)cc32)CC1 [TRIFLUOPERAZINE],Not Active,
ZIRCONIUM(IV) CHLORIDE,Not Active,Not Active

# Same assay, conditions: cho; read-out: IC50
row,Compound,IC50
1,TRANSPLATIN,3320 nM

# Same assay, conditions: cho; read-out: Ki
row,Compound,Ki
1,TRANSPLATIN,1130 nM

# Same assay, conditions: read-out: IC50
row,Compound,IC50
1,CN1[C@@H]2CC[C@H]1C[C@@H](OC(c1ccccc1)c1ccccc1)C2 [BENZTROPINE],654 nM
2,CN(C)C(=O)C(CCN1CCC(O)(c2ccc(Cl)cc2)CC1)(c1ccccc1)c1ccccc1 [LOPERAMIDE],1340 nM
3,Clc1ccc(COC(Cn2ccnc2)c2ccc(Cl)cc2Cl)c(Cl)c1 (configuration not stated) [MICONAZOLE],3200 nM
4,CCCCCCCCNC(C)C(O)c1ccc(SC(C)C)cc1 (configuration not stated) [SULOCTIDIL],2100 nM

# Same assay, conditions: read-out: Ki
row,Compound,Ki
1,CN1[C@@H]2CC[C@H]1C[C@@H](OC(c1ccccc1)c1ccccc1)C2 [BENZTROPINE],222 nM
2,CN(C)C(=O)C(CCN1CCC(O)(c2ccc(Cl)cc2)CC1)(c1ccccc1)c1ccccc1 [LOPERAMIDE],454 nM
3,Clc1ccc(COC(Cn2ccnc2)c2ccc(Cl)cc2Cl)c(Cl)c1 (configuration not stated) [MICONAZOLE],1090 nM
4,CCCCCCCCNC(C)C(O)c1ccc(SC(C)C)cc1 (configuration not stated) [SULOCTIDIL],715 nM

# Target: Mitogen-activated protein kinase 14 (Homo sapiens, UniProt Q16539);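 also: inhibition of p38alpha enzyme activity in a biochemical kinase assay, with myelin basic protein serving as substrate; in other assays of this panel Not Active means under 50% inhibition at 10 µM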
# Sequence (Q16539 whole entry): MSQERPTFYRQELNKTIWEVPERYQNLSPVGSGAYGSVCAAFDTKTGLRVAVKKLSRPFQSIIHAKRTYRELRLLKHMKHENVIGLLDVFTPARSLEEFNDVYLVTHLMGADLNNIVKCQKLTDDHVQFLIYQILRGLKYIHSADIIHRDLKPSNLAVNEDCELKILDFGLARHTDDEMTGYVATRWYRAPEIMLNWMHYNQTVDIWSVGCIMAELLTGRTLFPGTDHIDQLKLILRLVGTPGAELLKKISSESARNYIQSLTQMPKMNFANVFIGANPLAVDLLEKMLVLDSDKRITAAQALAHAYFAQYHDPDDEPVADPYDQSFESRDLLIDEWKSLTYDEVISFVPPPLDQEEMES
# Experiment: not given
# Parameters: species or system Escherichia coli
# Conditions: not given
Compound,IC50,Ki
CN1[C@@H]2CC[C@H]1C[C@@H](OC(c1ccccc1)c1ccccc1)C2 [BENZTROPINE],Not Active,
CN1CCN(C2=Nc3cc(Cl)ccc3Nc3ccccc32)CC1 [CLOZAPINE],Not Active,
CN(C)C(=O)C(CCN1CCC(O)(c2ccc(Cl)cc2)CC1)(c1ccccc1)c1ccccc1 [LOPERAMIDE],Not Active,
Clc1ccc(COC(Cn2ccnc2)c2ccc(Cl)cc2Cl)c(Cl)c1 (configuration not stated) [MICONAZOLE],Not Active,
OCCOCCN1CCN(C2=Nc3ccccc3Sc3ccccc32)CC1 [QUETIAPINE],Not Active,
Nc1ccc(S(=O)(=O)NC(=O)c2ccccc2)cc1 [SULFABENZAMIDE],Not Active,
CCCCCCCCNC(C)C(O)c1ccc(SC(C)C)cc1 (configuration not stated) [SULOCTIDIL],Not Active,
O=c1[nH]c(=O)n(C2CCCO2)cc1F (configuration not stated) [TEGAFUR],Not Active,
CC(=N)S [THIOACETAMIDE],Not Active,
Cc1ccc(C(=O)c2ccc(CC(=O)O)n2C)cc1 [TOLMETIN],Not Active,
CC(=O)OCC(COC(C)=O)OC(C)=O [TRIACETIN],Not Active,
CN1CCN(CCCN2c3ccccc3Sc3ccc(C(F)(F)F)cc32)CC1 [TRIFLUOPERAZINE],Not Active,
TRANSPLATIN,Not Active,Not Active
ZIRCONIUM(IV) CHLORIDE,Not Active,Not Active

# Target: Receptor tyrosine-protein kinase erbB-2 (Homo sapiens, UniProt P04626);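 also: inhibition of HER2 kinase enzyme activity, measured with Poly(Glu:Tyr) as the phosphorylation substrate; in other assays of this panel Not Active means under 50% inhibition at 10 µM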
# Experiment: biochemical
# Format: cell-based, Insect cells
# Conditions: insect cells
Compound,IC50,Ki
CN1[C@@H]2CC[C@H]1C[C@@H](OC(c1ccccc1)c1ccccc1)C2 [BENZTROPINE],Not Active,
CN1CCN(C2=Nc3cc(Cl)ccc3Nc3ccccc32)CC1 [CLOZAPINE],Not Active,
CN(C)C(=O)C(CCN1CCC(O)(c2ccc(Cl)cc2)CC1)(c1ccccc1)c1ccccc1 [LOPERAMIDE],Not Active,
OCCOCCN1CCN(C2=Nc3ccccc3Sc3ccccc32)CC1 [QUETIAPINE],Not Active,
Nc1ccc(S(=O)(=O)NC(=O)c2ccccc2)cc1 [SULFABENZAMIDE],Not Active,
CCCCCCCCNC(C)C(O)c1ccc(SC(C)C)cc1 (configuration not stated) [SULOCTIDIL],Not Active,
O=c1[nH]c(=O)n(C2CCCO2)cc1F (configuration not stated) [TEGAFUR],Not Active,
CC(=N)S [THIOACETAMIDE],Not Active,
Cc1ccc(C(=O)c2ccc(CC(=O)O)n2C)cc1 [TOLMETIN],Not Active,
CC(=O)OCC(COC(C)=O)OC(C)=O [TRIACETIN],Not Active,
CN1CCN(CCCN2c3ccccc3Sc3ccc(C(F)(F)F)cc32)CC1 [TRIFLUOPERAZINE],Not Active,
TRANSPLATIN,Not Active,Not Active
ZIRCONIUM(IV) CHLORIDE,Not Active,Not Active

# Same assay, conditions: read-out: IC50
row,Compound,IC50
1,Clc1ccc(COC(Cn2ccnc2)c2ccc(Cl)cc2Cl)c(Cl)c1 (configuration not stated) [MICONAZOLE],27400 nM

# Target: T1, Caspase-1 (Homo sapiens, UniProt P29466);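 also: Caspase-1 enzyme inhibition assay with a peptide substrate; in other assays of this panel Not Active means under 50% inhibition at 10 µM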
# T1 sequence (P29466 whole entry): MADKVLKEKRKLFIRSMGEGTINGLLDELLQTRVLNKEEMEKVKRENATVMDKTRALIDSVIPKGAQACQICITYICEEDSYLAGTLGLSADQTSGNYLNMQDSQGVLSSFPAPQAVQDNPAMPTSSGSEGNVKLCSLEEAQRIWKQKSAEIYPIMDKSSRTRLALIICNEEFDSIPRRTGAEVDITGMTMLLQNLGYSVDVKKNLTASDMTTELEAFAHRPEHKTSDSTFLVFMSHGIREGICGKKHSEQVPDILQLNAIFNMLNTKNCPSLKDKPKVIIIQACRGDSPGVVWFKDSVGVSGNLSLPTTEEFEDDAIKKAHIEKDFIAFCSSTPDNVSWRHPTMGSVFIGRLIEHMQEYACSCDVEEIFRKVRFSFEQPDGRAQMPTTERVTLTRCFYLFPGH
# Experiment: not given
# Parameters: species or system Escherichia coli
# Conditions: not given
Compound,IC50,Ki
CN1[C@@H]2CC[C@H]1C[C@@H](OC(c1ccccc1)c1ccccc1)C2 [BENZTROPINE],Not Active,
CN1CCN(C2=Nc3cc(Cl)ccc3Nc3ccccc32)CC1 [CLOZAPINE],Not Active,
CN(C)C(=O)C(CCN1CCC(O)(c2ccc(Cl)cc2)CC1)(c1ccccc1)c1ccccc1 [LOPERAMIDE],Not Active,
Clc1ccc(COC(Cn2ccnc2)c2ccc(Cl)cc2Cl)c(Cl)c1 (configuration not stated) [MICONAZOLE],Not Active,
OCCOCCN1CCN(C2=Nc3ccccc3Sc3ccccc32)CC1 [QUETIAPINE],Not Active,
Nc1ccc(S(=O)(=O)NC(=O)c2ccccc2)cc1 [SULFABENZAMIDE],Not Active,
CCCCCCCCNC(C)C(O)c1ccc(SC(C)C)cc1 (configuration not stated) [SULOCTIDIL],Not Active,
O=c1[nH]c(=O)n(C2CCCO2)cc1F (configuration not stated) [TEGAFUR],Not Active,
CC(=N)S [THIOACETAMIDE],Not Active,
Cc1ccc(C(=O)c2ccc(CC(=O)O)n2C)cc1 [TOLMETIN],Not Active,
CC(=O)OCC(COC(C)=O)OC(C)=O [TRIACETIN],Not Active,
CN1CCN(CCCN2c3ccccc3Sc3ccc(C(F)(F)F)cc32)CC1 [TRIFLUOPERAZINE],Not Active,
TRANSPLATIN,Not Active,Not Active
ZIRCONIUM(IV) CHLORIDE,Not Active,Not Active

# Target: 5-hydroxytryptamine receptor 4 (Cavia porcellus, UniProt O70528); also: in other assays of this panel Not Active means under 50% inhibition at 10 µM
# Sequence (O70528 whole entry): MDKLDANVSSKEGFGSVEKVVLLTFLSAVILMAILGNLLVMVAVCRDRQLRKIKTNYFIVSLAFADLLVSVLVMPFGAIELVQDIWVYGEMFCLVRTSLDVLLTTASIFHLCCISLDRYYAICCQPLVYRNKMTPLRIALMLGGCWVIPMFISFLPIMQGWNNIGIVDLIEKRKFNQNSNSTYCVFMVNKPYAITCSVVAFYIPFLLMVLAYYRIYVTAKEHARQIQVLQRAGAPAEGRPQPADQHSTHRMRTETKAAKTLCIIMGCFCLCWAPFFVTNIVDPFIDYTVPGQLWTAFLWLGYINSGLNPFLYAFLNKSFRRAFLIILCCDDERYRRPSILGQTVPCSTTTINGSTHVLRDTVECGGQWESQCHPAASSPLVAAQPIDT
# Experiment: not given
# Format: cell membranes, Dunkin-Hartley, Striatum, Membrane
# Conditions: not given
Compound,IC50,Ki
CN1[C@@H]2CC[C@H]1C[C@@H](OC(c1ccccc1)c1ccccc1)C2 [BENZTROPINE],Not Active,
CN1CCN(C2=Nc3cc(Cl)ccc3Nc3ccccc32)CC1 [CLOZAPINE],Not Active,
CN(C)C(=O)C(CCN1CCC(O)(c2ccc(Cl)cc2)CC1)(c1ccccc1)c1ccccc1 [LOPERAMIDE],Not Active,
Clc1ccc(COC(Cn2ccnc2)c2ccc(Cl)cc2Cl)c(Cl)c1 (configuration not stated) [MICONAZOLE],Not Active,
OCCOCCN1CCN(C2=Nc3ccccc3Sc3ccccc32)CC1 [QUETIAPINE],Not Active,
Nc1ccc(S(=O)(=O)NC(=O)c2ccccc2)cc1 [SULFABENZAMIDE],Not Active,
CCCCCCCCNC(C)C(O)c1ccc(SC(C)C)cc1 (configuration not stated) [SULOCTIDIL],Not Active,
O=c1[nH]c(=O)n(C2CCCO2)cc1F (configuration not stated) [TEGAFUR],Not Active,
CC(=N)S [THIOACETAMIDE],Not Active,
Cc1ccc(C(=O)c2ccc(CC(=O)O)n2C)cc1 [TOLMETIN],Not Active,
CC(=O)OCC(COC(C)=O)OC(C)=O [TRIACETIN],Not Active,
CN1CCN(CCCN2c3ccccc3Sc3ccc(C(F)(F)F)cc32)CC1 [TRIFLUOPERAZINE],Not Active,
TRANSPLATIN,Not Active,Not Active
ZIRCONIUM(IV) CHLORIDE,Not Active,Not Active
